Like-named read-outs stand apart in the source and are kept apart here.
Test system: Anopheles stephensi
Experiment: Anopheles stephensi treated well plate contact test: knockdown and mortality
Format: in vivo
Conditions: for mortality at 0.2 ppm / pest or weed control at 0.2 ppm: test compound 0.2 ppm; for mortality at 2 ppm / pest or weed control at 2 ppm: test compound 2 ppm; for mortality at 20 ppm / pest or weed control at 20 ppm: test compound 20 ppm; for mortality at 200 ppm / pest or weed control at 200 ppm: test compound 200 ppm; for pest or weed control at 200 ppm: adult females
Experimental: Examples Anopheles stephensi (Indian Malaria Mosquito)
The individual wells of twelve (12) well tissue culture plates were treated with 200 μl of an ethanol solution containing a test compound of Table 1 or Table 2 at a defined concentration and repeated with also 200 μl of an ethanol solution containing in addition 2 ppm TFNA-AM. Once the deposits were dry, five non-blood fed adult female Anopheles stephensi (between two to five day old) were added to each well, and sustained with a 10% sucrose solution in a cotton wool plug. Assessment of the knockdown after 1 hour, and mortality after 24 and 48 hours was carried out.
In case of multiple tests, the mean value is reported.

[1] = Anopheles stephensi, without TFNA-AM, after 24 hours, read-out: mortality % 24, without TFNA-AM
[2] = Anopheles stephensi, without TFNA-AM, after 48 hours, read-out: mortality % 48, without TFNA-AM
[3] = Anopheles stephensi, without TFNA-AM, knockdown after 1 hour, read-out: Knock Down, without TFNA-AM
[4] = test compound 0.2 ppm plus 2 ppm TFNA-AM, after 24 hours
[5] = test compound 0.2 ppm plus 2 ppm TFNA-AM, after 48 hours
[6] = test compound 0.2 ppm plus 2 ppm TFNA-AM, knockdown after 1 hour
[7] = test compound 2 ppm plus 2 ppm TFNA-AM, after 24 hours
[8] = test compound 2 ppm plus 2 ppm TFNA-AM, after 48 hours
[9] = test compound 2 ppm plus 2 ppm TFNA-AM, knockdown after 1 hour
[10] = test compound 20 ppm plus 2 ppm TFNA-AM, after 24 hours
[11] = test compound 20 ppm plus 2 ppm TFNA-AM, after 48 hours
[12] = test compound 20 ppm plus 2 ppm TFNA-AM, knockdown after 1 hour
[13] = test compound 200 ppm plus 2 ppm TFNA-AM, after 24 hours
[14] = test compound 200 ppm plus 2 ppm TFNA-AM, after 48 hours
[15] = test compound 200 ppm plus 2 ppm TFNA-AM, knockdown after 1 hour

Structure (SMILES) | mortality at 0.2 ppm [1] | mortality at 0.2 ppm [2] | pest or weed control at 0.2 ppm [3] | mortality at 2 ppm [1] | mortality at 2 ppm [2] | pest or weed control at 2 ppm [3] | mortality at 20 ppm [1] | mortality at 20 ppm [2] | pest or weed control at 20 ppm [3] | mortality at 200 ppm [1] | mortality at 200 ppm [2] | pest or weed control at 200 ppm [3] | mortality % 24, with TFNA-AM [4] | mortality % 48, with TFNA-AM [5] | Knock Down, with TFNA-AM [6] | mortality % 48, with TFNA-AM [8] | Knock Down, with TFNA-AM [9] | mortality % 24, with TFNA-AM [10] | mortality % 48, with TFNA-AM [11] | Knock Down, with TFNA-AM [12] | also measured
OC(c1ccc(Cl)cc1)(c1ccc(Cl)cc1)C(Cl)(Cl)Cl [Dicofol] | 0% | 0% | 0% | 0% | 0% | 0% | 0% | 0% | 0% | 0% | 0% | 0% | 20% | 0% | 100% | 20% | 100% | 80% | 100% | 100% | mortality % 24, with TFNA-AM [7]: 60%; mortality % 24, with TFNA-AM [13]: 100%; mortality % 48, with TFNA-AM [14]: 100%; Knock Down, with TFNA-AM [15]: 100%
CCC(Nc1ncnc(C)c1Cl)c1ccc(OC(F)F)cc1 (stereo not shown) [Diflumetorim] | 0% | 0% | 0% | 60% | 60% | 30% | 100% | 100% | 100% | 100% | 100% | 100% | 20% | 10% | 100% | 90% | 100% | 100% | 100% | 100% | mortality % 24, with TFNA-AM [7]: 90%; mortality % 24, with TFNA-AM [13]: 100%; mortality % 48, with TFNA-AM [14]: 100%; Knock Down, with TFNA-AM [15]: 100%
CN/C(=N/CC1CCOC1)N[N+](=O)[O-] (stereo not shown) [Dinotefuran] | 0% | 0% | 0% | 40% | 40% | 0% | 40% | 80% | 0% | 100% | 100% | 40% | – | 60% | 100% | 60% | 100% | 100% | 100% | 100% | mortality % 24, with TFNA-AM [13]: 100%; mortality % 48, with TFNA-AM [14]: 100%; Knock Down, with TFNA-AM [15]: 100%
CCOc1ccc(C(C)(C)COCc2cccc(Oc3ccccc3)c2)cc1 [Etofenprox] | 20% | 20% | 0% | 80% | 80% | 0% | 100% | 100% | 60% | – | – | – | 100% | 100% | 100% | 100% | 100% | 100% | 100% | 100% | mortality at 0.02 ppm (Anopheles stephensi, test compound 0.02 ppm, without TFNA-AM, after 24 hours, read-out: mortality % 24, without TFNA-AM): 0%; mortality at 0.02 ppm (Anopheles stephensi, test compound 0.02 ppm, without TFNA-AM, after 48 hours, read-out: mortality % 48, without TFNA-AM): 0%; pest or weed control at 0.02 ppm (Anopheles stephensi, test compound 0.02 ppm, without TFNA-AM, knockdown after 1 hour, read-out: Knock Down, without TFNA-AM): 0%; mortality % 24, with TFNA-AM (test compound 0.02 ppm plus 2 ppm TFNA-AM, after 24 hours): 60%; mortality % 48, with TFNA-AM (test compound 0.02 ppm plus 2 ppm TFNA-AM, after 48 hours): 60%; Knock Down, with TFNA-AM (test compound 0.02 ppm plus 2 ppm TFNA-AM, knockdown after 1 hour): 100%; mortality % 24, with TFNA-AM [7]: 100%

— patent publication US20260206755A1, “COMPOUNDS AND COMPOSITIONS HAVING KNOCK-DOWN OR BLOOD FEED INHIBITION ACTIVITY AGAINST INSECT PESTS” (priority 2017, published 2026)
